{
  "source": "patent US20220281930A1",
  "about": "“COMPOSITIONS AND METHODS FOR THE TREATMENT OF PATHOLOGICAL PAIN AND ITCH” (DUKE UNIVERSITY, priority 2019, published 2022)",
  "key": {"KCC2 mRNA [1]": {"tested_on": "KCC2 mRNA", "assay": "KCC2 mRNA RT-qPCR in microdissected spinal cord dorsal horn", "type": "in vivo, mouse", "conditions": "AAV9 i.t; vs tdTomato control", "description": "oligodT-initiated reverse transcription of 1 μg total RNA, DNA-se treated, was subjected to RT-qPCR using primers specific for KCC2 for rat and KCC2 for human sequences, normalized for neuronal βIII-tubulin, as previously described (Yeo et al., 2009, J Neurosci 29:14652-14662). For cultured neurons, total RNA was extracted from pelleted cells, and for spinal cord tissue it was extracted from microdissected lumbar spinal cord dorsal horn.\nWith the aforementioned findings and in view of the SCDH as the likely site of analgesic action of KP (Coull et al., 2003, Nature 424:938-942; Gagnon et al., 2013, Nat Med 19:1524-1528), SCDH KCC2 expression and function in nerve injury and response to KP was assessed. […] To measure KCC2 mRNA, SCDH Rexed-layers I-II were microdissected with laser capture followed by RT-qPCR. SCDH KCC2 protein expression was measured morphometrically after KCC2 immunolabeling using SCDH laminae I-II as the region-of-interest (FIG. 5B)."}, "δ-cat": {"tested_on": "δ-cat", "assay": "Nuclear transfer of transfected human δ-cat in N2a cells", "type": "cell-based, mouse", "conditions": "mutation vs δ-cat(WT), without KP", "description": "(§1) Plasmid containing human δ-catenin (CTNND2, NM_001288717) open reading frame was obtained from GeneCopeia (EX-A4285-M02) and cloned into pCMV-ENTER vector (Origene PS100001). Site-directed mutagenesis using Phusion DNA Polymerase enzyme (Thermofisher F549L) in conjunction with complementary primers bearing the specific mutation were used to generate the S276A […] mutation S276A. PCR was followed by Dpn1 enzyme digestion to remove parental plasmid DNA. All constructs were verified by sequencing. pCS-CMV-tdTomato plasmid was obtained from Addgene (cat. #30530).\nTo investigate the relevance of δ-cat residue S276, N2a neural cells were studied because these cells transfect at higher efficiency than primary cortical neurons. In our cultures, N2a cells expressed neuronal ßIII-tubulin in elongated processes as determined by immune-labeling as an indicator of their neuronal differentiation. […] This increase in nuclear transfer was very similar to the trafficking we recorded in primary cortical neurons, thus validating the cell line. […] Of note, there was no increase of nuclear transfer of δ-cat(S276A) upon KP treatment (FIG. 8C and FIG. 8D)."}, "nerve injury pain": {"tested_on": "nerve injury pain", "assay": "Nerve constriction injury (PSNL) pain model, mechanical withdrawal", "type": "in vivo, mouse", "conditions": "AAV9-huSyn, 5×10^9 viral genomes i.t; vs tdTomato control; to d18", "description": "For pain-related behavior, mechanical allodynia was assessed with von Frey filaments (Ugo Basile, Italy). The mice were placed on a 5×5-mm wire-mesh grid floor in individual compartments to avoid visual stimulation and allowed to adapt for 0.5 h prior to the von Frey test. The von Frey filament was then applied to the middle of the plantar surface of the hind paw with 5 g force. The withdrawal responses following the hind paw stimulation were measured at least three times, and the mechanical allodynia, which was defined as an increase in the number of withdrawal responses to the stimulation, was compared.\nThus, in vivo, KP functions as an analgesic when administered systemically in injury-related pain models.\nNext, whether the analgesic effects of KP were mediated centrally at the spinal cord level was assessed.\nMechanical withdrawal was measured thresholds after nerve constriction injury (PSNL) (FIG. 12B and FIG. 12C). […] Thus, δ-cat(S276A) spinal transgenesis via AAV9 is sufficient to evoke analgesia after nerve constriction injury, to lesser degree also with δ-cat(WT). Importantly, δ-cat(S276A) spinal transgenesis was accompanied by increased expression of KCC2 in the SCDH. […] Moreover, our discovery points toward a genetically-encoded approach that can be developed for translation into clinical use as an alternative or complement to KP-related small molecules."}, "KCC2 mRNA [2]": {"tested_on": "KCC2 mRNA", "assay": "KCC2 mRNA in differentiated N2a cells transfected with δ-cat constructs", "type": "cell-based, mouse", "conditions": "δ-cat construct vs control transfection", "description": "as §1\nTotal RNA was isolated from cultured cell samples using Directzol RNA miniprep kit (ZymoResearch). The protocol includes DNAse digestion to exclude genomic DNA from preparations. […] Gene expression was assessed by quantitative real-time PCR using 2×SYBR Green Master Mix (Qiagen) and a three-step cycling protocol (anneal at 60° C./elongate at 72° C., denature at 95° C.). […] The amount of target messenger RNA (mRNA) in the experimental group relative to that in the control was determined from the resulting fluorescence and threshold values (Ct) using the ΔΔCt method. βIII-tubulin was used as housekeeping gene.\nNext, the question of whether δ-cat, when expressed as a spinal transgene in sensory relay neurons, will facilitate analgesia in nerve constriction injury was assessed. […]"}, "KCC2 mRNA [3]": {"tested_on": "KCC2 mRNA", "assay": "KCC2 mRNA RT-qPCR in rat primary cortical neurons", "type": "cell-based", "conditions": "rat primary cortical neurons; dose-dependent, FIG. 10", "description": "Total RNA was isolated from cultured cell samples using Directzol RNA miniprep kit (ZymoResearch). The protocol includes DNAse digestion to exclude genomic DNA from preparations. Total RNA (1 μg) was reverse transcribed using oligo primers (dT) and SuperScriptIII first-strand synthesis kit (Invitrogen). Gene expression was assessed by quantitative real-time PCR using 2×SYBR Green Master Mix (Qiagen) and a three-step cycling protocol (anneal at 60° C./elongate at 72° C., denature at 95° C.). Specificity of primers was verified by dissociation/melting curve for the amplicons when using SYBR Green as a detector. All reactions were performed in triplicates. The amount of target messenger RNA (mRNA) in the experimental group relative to that in the control was determined from the resulting fluorescence and threshold values (Ct) using the ΔΔCt method. βIII-tubulin was used as housekeeping gene. oligodT-initiated reverse transcription of 1 μg total RNA, DNA-se treated, was subjected to RT-qPCR using primers specific for KCC2 for rat and KCC2 for human sequences, normalized for neuronal βIII-tubulin, as previously described (Yeo et al., 2009, J Neurosci 29:14652-14662). For cultured neurons, total RNA was extracted from pelleted cells, and for spinal cord tissue it was extracted from microdissected lumbar spinal cord dorsal horn."}},
  "data": [
    {"compound": "δ-cat(S276A): human δ-catenin S276A mutant transgene (SEQ ID NO:32), as plasmid or AAV9 vector driven by human synapsin promoter", "values": [
      {"measurement": "KCC2 mRNA in microdissected SCDH", "setting": "KCC2 mRNA [1]", "value": "significantly increased"},
      {"measurement": "nuclear transfer of the transfected construct", "setting": "δ-cat", "value": "increases nuclear transfer"},
      {"measurement": "mechanical withdrawal thresholds after PSNL", "setting": "nerve injury pain", "value": "Significantly less sensitization"},
      {"measurement": "KCC2 mRNA expression", "setting": "KCC2 mRNA [2]", "value": "slightly elevated"}
    ]},
    {"compound": "O=C1[C@H](Cc2ccc(O)cc2)N2C(=O)CCN(C(=O)NCc3ccccc3)[C@H]2CN1Cc1cccc2ccccc12", "note": "[ICG-001]", "values": [
      {"measurement": "KCC2 mRNA expression", "setting": "KCC2 mRNA [3]", "value": "significantly decreases"}
    ]}
  ]
}
